The nature of data set [1]: Fluorescent intensity at various pH in buffer solution containing 50% DMSO. The data set is classed as physicochemical. As for the experimental part:
The fluorescent intensities of Compound 9 at various pH were measured in buffer solution containing 50% DMSO. […] Such increase takes place at more acidic side than that of naphthyl imide-type pH-responsive fluorescent compound.

In data set [2] the test system is Parkin-non-expressed HeLa cells. The data set is described as follows: Confocal laser microscopic detection of mitophagy, CCCP induction. The class given is cell-based. To be noted: 100 nmol/L, 10 μM/L CCCP for 24 hours.
The subject of data set [3] is Parkin-expressed HeLa cells. The data set is described as above. The data set is classed as cell-based. The conditions noted are these: 100 nmol/L, 10 μM/L CCCP for 24 hours, 1 μM Lyso Dye. An excerpt:
Methods for inducing mitophagy include, in addition to a bulk method such as described in Example 3 above, a selective method mediated with Parkin gene and PINK1 enzyme. The latter involves Parkinson disease and the relationship with a quality control of dysfunctional mitochondria (For example, see Derek Narendra, Atsushi Tanaka, Der-Fen Suen and Richard J. Youle, J. Cell Biol., 2008, 183, 795-803.). To examine the mitochondria-selective detection of autophagy, Parkin-expressed HeLa cells were prepared and the mitophagy was induced by adding Compound 9 and carbonyl cyanide m-chlorophenyl hydrazone (CCCP), a mitochondrial uncoupler and incubating.
HeLa cells were seeded on a μ-slide 8 well (Ibidi) and incubated in a CO2 incubator at 37° C. overnight. Parkin plasmid was introduced using HilyMax (DOJINDO LABORATORIES) into the cells and the cells were incubated overnight. The cultured cells were washed with a plasma-containing medium, to which Compound 9 diluted with Hanks' HEPES buffer (100 nmol/L) was added and incubated for 30 minutes. After washing with the plasma-containing medium, the cells were cultured in a cell culture medium containing 10 μM/L of CCCP for 24 hours. After the occurrence of mitophagy was monitored by the fluorescent microscope, the cultured cells were further incubated with 1 μM Lyso Dye at 37° C. for 30 minutes.

For data set [4], the system named is Parkin-expressed HeLa cells. The data set is described as follows: Flow cytometry (FCM) analysis of mitophagy, CCCP induction. The data set is classed as cell-based. The conditions noted are these: 100 nmol/L, 10 μM/L CCCP for 24 hours. As for the experimental part: HeLa cells were seeded on a 24 well plate and incubated in a CO2 incubator at 37° C. overnight. Parkin plasmid was introduced using HilyMax (DOJINDO LABORATORIES) into the cells and the cells were further incubated overnight. The cultured cells were washed with a plasma-containing medium, to which Compound 9 diluted with Hanks' HEPES buffer (100 nmol/L) was added and incubated for 30 minutes. After washing with the plasma-containing medium, the cells were cultured in a cell culture medium containing 10 μM/L of CCCP for 24 hours. After washing with PBS, the cells were peeled off by trypsin and EDTA. The cells were collected by centrifuge, dispersed in 0.5 mL of HBSS and analyzed by FCM (BD FACS cant II).

The next data set has as its system HeLa cells. Nature of the data set: Mitophagy detection test using HeLa cells (starvation induction), fluorescent microscope. The conditions noted are these: 100 nmol/L, 30 min, 1 μM Lyso Dye. The class given is cell-based. As for the experimental part:
HeLa cells were seeded on a μ-slide 8 well (Ibidi) and incubated in a CO2 incubator at 37° C. overnight. Compound 9 diluted with Hanks' HEPES buffer (100 nmol/L) was added and incubated for 30 minutes. A starvation induction was carried out by washing cultured cells with Hanks' HEPES buffer twice follow by adding plasma-free Krebs' buffer containing 1 μM glucagon and 7.5 μM pepstatin A and incubating at 37° C. for appropriate period. Then, the cultured cells were observed by a fluorescent microscope. To confirm the uptake of Compound 9 in lysosomes, 1 μM Lyso Dye diluted with Hanks' HEPES buffer was added to the cultured cells and incubated at 37° C. for 30 minutes.

Data set [5] is described as follows: pH-dependent excitation and fluorescence spectra in buffer solution containing 50% acetonitrile. The class given is physicochemical. As for the experimental part:
To investigate a pH-dependent fluorescent emission of Compound 9, excitation spectra (“Excitation” in FIG. 1) and fluorescence spectra (“Fluorescence” in FIG. 1) were measured at pH 4.0 and 7.4 in buffer solution containing 50% acetonitrile.

Take `O=C(CCN1C(=O)c2ccc3c4cccc5c(N6CCN(Cc7ccc(CCl)cc7)CC6)ccc(c6ccc(c2c36)C1=O)c54)NCC[P+](c1ccccc1)(c1ccccc1)c1ccccc1.[Br-]` [Compound 9]: in data set [1], the “change of fluorescent intensity responding to pH” value is given as “increases from a neutral region to an acidic region”. Besides, in data set [2], the fluorescence from compound result is listed as “faint”. In data set [3], the “fluorescence from compound and co-staining with lysosome dye” value is “is observed as well as the collateral stain with a lysosome dye (Lyso Dye) is observed”. The “increase of fluorescent emission on induction of mitophagy using CCCP” value in data set [4] is recorded as 1.3 times. Besides, the “co-staining with Lyso Dye (uptake in lysosomes)” value in the data set on HeLa cells was “collateral stain took place”. Moreover, the “fluorescent intensity at pH 4.0 compared with pH 7.4” value in data set [5] (buffer solution containing 50% acetonitrile, pH 4.0 vs 7.4) was “higher than that at pH 7.4”. Besides, the “shift of maximum fluorescent wavelength to short-wavelength side” value in data set [5] (pH 4.0 vs pH 7.4, buffer solution containing 50% acetonitrile) amounted to 30 nm. Moreover, the self-aggregation behaviour result in data set [5] (polar solvent, leads to decrease of fluorescent intensity) is recorded as “tends to form a self-aggregate in a polar solvent”.

Values taken from patent US10787473B2, “PH responsive fluorescent compound, composition for detecting mitophagy using same, and method for detecting mitophagy within cells” (DOJINDO LABORATORIES, priority 2016, dated 2020).
